Patent US8460925B2, “Methods for culturing mammalian taste cells” (priority 2004, dated 2013)

How the values were obtained:
cultured taste cells = test: Response of cultured taste cells to taste stimuli by Ca-imaging (fura-2); assay type: cell-based, rat; settings: elevation of intracellular calcium
Method: Taste cells employed are isolated as described in Example 1 and cultured for 1 week or 2 months on rat tail collagen type 1-coated coverslips.
(§1) Ca-imaging is performed as follows. The coverslips are incubated for 15-30 minutes with calcium sensitive dye in Modified MHNK ringer's solution (80 mM NaCl, 5 mM KCl, 1 mM MgCl2, 1 mM CaCl2, 1 mM Na-pyruvate, and 20 mM Hepes-Na, pH 7.2 with osmolarity adjusted to 300-310 by 5M NaCl) supplemented with […] (Molecular Probes Inc., Eugene, Oreg.) and 20 mg/ml PLURONIC® F127 (Molecular Probes Inc.). The calcium sensitive dye fura-2 AM is cleaved to fura-2 which is fluorescent and can be detected.
After incubation, coverslips are placed in a recording chamber and continuously bathed with Modified MHNK Ringer's solution that is applied as superfusion.
The stimuli (Denatonium benzoate 2 mM and 0.5 mM, Acesulfame K 250 ppm, Monosodium glutamate (MSG) 3 mM, Cycloheximide 25 μM, Glycine 125 mM, and High K buffer (modified Modified MHNK ringer's solution with 5 mM NaCl, 80 mM KCl, 1 mM MgCl2, 1 mM CaCl2, 1 mM Na-pyruvate, and 20 mM Hepes-Na, pH 7.2 with osmolarity adjusted to 300-310 by 5M NaCl) are applied to the coverslip by switching the superfusion to the stimulus solution, which allows for a complete change of bath solutions in the chamber within 10 seconds.
Calcium imaging recordings are performed using standard imaging techniques as described by Restrepo D., M. Zviman and N. E. Rawson, “The measurement of intracellular calcium in chemosensory cells”, in: Methods in Chemosensory Research, Ed. by A. Spielman and J. Brand. CRC Press, 1995. […] Emitted light from fura-2 in the cells under 200× magnification is filtered at 510 nm and recorded with a cooled CCD camera (Olympix, Perkin Elmer Life Sciences, Bethesda Md.). The excitation wavelength is 340-380 nm and the emission wavelength is 510 nm using a wide band filter. Images are digitalized using a Merlin Imaging Workstation (Perkin Elmer Life Sciences, Bethesda Md.), which controls illuminator, camera, and acquisition, and performs the image ratioing and the display of pseudocolor images.
Stimuli are diluted in Modified MHNK ringer's solution and applied via a gravity-flow superfusion apparatus for about 10-60 seconds, depending on the stimulus. […] Typically several cells are tested.

mouse T2R5 = target: T1, mouse T2R5 (Mus musculus, UniProt Q9JKT4); test: Calcium imaging of cultured taste cells transfected with mT2R5; assay type: cell-based
T1 construct: sst (N-terminal export tag; by own knowledge of Bufe et al. 2002, the first 45 residues of rat somatostatin receptor type 3) (N); expressed in transfected cells; host or cells: primary cultured rat taste cells on rat tail collagen-1-coated coverslips
T1 sequence (Q9JKT4 1-300): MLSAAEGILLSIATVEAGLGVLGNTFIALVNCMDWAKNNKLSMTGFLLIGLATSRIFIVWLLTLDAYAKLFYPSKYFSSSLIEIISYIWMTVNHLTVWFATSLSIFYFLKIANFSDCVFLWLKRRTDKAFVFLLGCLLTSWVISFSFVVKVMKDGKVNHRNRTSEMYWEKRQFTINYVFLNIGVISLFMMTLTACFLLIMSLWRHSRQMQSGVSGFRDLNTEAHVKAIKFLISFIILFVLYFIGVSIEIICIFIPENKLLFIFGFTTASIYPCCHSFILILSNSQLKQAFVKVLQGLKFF
Method: as §1
(§2) Calcium imaging recordings are performed using standard imaging techniques as described by Restrepo D., M. Zviman and N. E. Rawson, “The measurement of intracellular calcium in chemosensory cells”, in: Methods in Chemosensory Research, Ed. by A. Spielman and J. Brand. CRC Press, 1995. Illumination is provided by a LSR SPECTRAMASTER monochromator coupled to the microscope. Emitted light from fura-2 in the cells under 200× magnification is filtered at 510 nm and recorded with a cooled CCD camera (Olympix, Perkin Elmer Life Sciences, Bethesda Md.). The excitation wavelength is 340-380 nm and the emission wavelength is 510 nm using a wide band filter. Images are digitalized using a Merlin Imaging Workstation (Perkin Elmer Life Sciences, Bethesda Md.), which controls illuminator, camera, and acquisition, and performs the image ratioing and the display of pseudocolor images. […]

human T2R16 = target: T2, human T2R16 (Homo sapiens, UniProt Q9NYV7); test: Calcium imaging of cultured taste cells transfected with hT2R16; assay type: cell-based
T2 construct: expressed in transfected cells; host or cells: primary cultured rat taste cells on rat tail collagen-1-coated coverslips
T2 sequence (Q9NYV7 1-291): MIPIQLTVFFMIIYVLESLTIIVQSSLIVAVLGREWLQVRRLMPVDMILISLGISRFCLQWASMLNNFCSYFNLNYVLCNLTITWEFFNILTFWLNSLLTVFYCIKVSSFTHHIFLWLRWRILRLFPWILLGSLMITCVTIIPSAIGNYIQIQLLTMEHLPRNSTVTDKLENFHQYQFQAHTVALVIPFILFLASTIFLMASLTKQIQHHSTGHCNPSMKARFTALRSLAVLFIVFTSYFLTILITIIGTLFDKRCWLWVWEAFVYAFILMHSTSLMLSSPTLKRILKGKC
Method: as §1, §2

With `CC1=CC(=O)NS(=O)(=O)O1.[K]` [Acesulfame K, 6-Methyl-1,2,3-oxathiazin-4(3H)-one 2,2-dioxide potassium salt] the “activation of cultured taste cells by taste stimulants as shown by calcium imaging” value (from here on “activation … by calcium imaging”) (cultured taste cells) was “activated”.

In the case of `CC1CC(C)C(=O)C(C(O)CC2CC(=O)NC(=O)C2)C1` (stereo not shown) [Cycloheximide, 3-[2-(3,5-Dimethyl-2-oxocyclohexyl)-2-hydroxyethyl]glutarimide], the “activation … by calcium imaging” value (cultured taste cells) is reported as “activated” and the “effective concentration for increase in intracellular calcium” value (mouse T2R5) is reported as 1 µM.

For `CC[N+](CC)(CC(=O)Nc1c(C)cccc1C)Cc1ccccc1` [Denatonium, Denatonium benzoate], the “activation … by calcium imaging” value (cultured taste cells) was “activated”.

`NCC(=O)O` [Glycine] was tested, and the “activation … by calcium imaging” value (cultured taste cells) was “activated”.

For `N[C@@H](CCC(=O)O)C(=O)[O-].[Na+]` [MSG, Monosodium glutamate], the “activation … by calcium imaging” value (cultured taste cells) was “activated”.

For `OC[C@H]1O[C@@H](Oc2ccccc2)[C@H](O)[C@@H](O)[C@@H]1O` [phenyl-beta-D-glucopyranoside], the “effective concentration for increase in intracellular calcium” value (human T2R16) was 1 milliM.
